Measured values: ChEMBL document CHEMBL1159335, “Structures of new cyclic diarylheptanoids and inhibitors of nitric oxide production from Japanese folk medicine Acer nikoense” (J Nat Prod, 2003)

What was measured:
Macrophage [1] = experiment: Inhibition of LPS-induced NO production in ddY mouse peritoneal macrophages at 1 uM by Griess reagent method; assay type: functional
Macrophage [2] = experiment: Inhibition of LPS-induced NO production in ddY mouse peritoneal macrophages at 3 uM by Griess reagent method; assay type: functional
Macrophage [3] = experiment: Inhibition of LPS-induced NO production in ddY mouse peritoneal macrophages at 10 uM by Griess reagent method; assay type: functional
Macrophage [4] = experiment: Inhibition of LPS-induced NO production in ddY mouse peritoneal macrophages at 30 uM by Griess reagent method; assay type: functional
Macrophage [5] = experiment: Inhibition of LPS-induced NO production in ddY mouse peritoneal macrophages at 100 uM by Griess reagent method; assay type: functional
Macrophage [6] = experiment: Inhibition of LPS-induced NO production in ddY mouse peritoneal macrophages by Griess reagent method; assay type: functional, cell-based
[7] = Cytotoxicity against ddY mouse macrophages after 20 hrs by MTT assay; assay type: cell-based; details: macrophage

Row | SMILES | IC50 (Macrophage [6]) [µM] | inhibition at 1 µM (Macrophage [1]) [%] | inhibition at 3 µM (Macrophage [2]) [%] | inhibition at 10 µM (Macrophage [3]) [%] | inhibition at 30 µM (Macrophage [4]) [%] | inhibition at 100 µM (Macrophage [5]) [%] | Activity [7]
1 | Oc1ccc(CCCC[C@@H](O)CCc2ccc(O)cc2)cc1 | 73 | -1.3 | 1.3 | -1.1 | 10.7 | 67.2 | Non-toxic
2 | O=C1CCCCc2ccc(O)c(c2)-c2cc(ccc2O)CC1 [ACEROGENIN E] | 24 | 0.1 | 3.3 | 13.6 | 59.4 | 81.2 | Non-toxic
3 | Oc1ccc2cc1-c1cc(ccc1O)CCC(O)CCCC2 (stereo not given) [ACEROGENIN K] | 25 | 6.6 | 2.1 | 24.3 | 56.6 | 91.3 | Non-toxic

Further lines, with some results ahead:

Row | IC50 (Macrophage [6]) [µM] | SMILES | inhibition at 1 µM (Macrophage [1]) [%] | inhibition at 3 µM (Macrophage [2]) [%] | inhibition at 10 µM (Macrophage [3]) [%] | inhibition at 30 µM (Macrophage [4]) [%] | inhibition at 100 µM (Macrophage [5]) [%] | Activity [7]
4 | 74 | Oc1ccc2cc1Oc1ccc(cc1)CC[C@H](O)CCCC2 [ACEROGENIN A] | 6.7 | 5.8 | 11.6 | 22.2 | 61.4 | Non-toxic
5 | 88 | Oc1ccc2cc1Oc1ccc(cc1)CCCC[C@H](O)CC2 [ACEROGENIN B] | 1.9 | -0.5 | -0.2 | 17.6 | 54.1 | Non-toxic
